Experimental data taken from article PMC4333176, “Heterologous expression and biochemical characterization of a highly active and stable chloroplastic CuZn-superoxide dismutase from Pisum sativum” (BMC Biotechnology, 2015).

B1: Pisum sativum chloroplastic CuZn-superoxide dismutase (PschSOD), recombinant, without chloroplast transit peptide (enzyme, Pisum sativum (pea), UniProt P11964 49-202, looked up)
chain: AAKKAVSVLKGTSAVEGVVTLTQDDEGPTTVNVRITGLTPGLHGFHLHEYGDTTNGCISTGPHFNPNKLTHGAPEDEIRHAGDLGNIVANAEGVAEATIVDNQIPLTGPNSVVGRALVVHELQDDLGKGGHELSLSTGNAGGRLACGVVGLTPV
notes: the forward primer (NdeI, [residues removed]) encodes M-AAKKAVA, the reverse primer ends at ...GLTPV and the stop codon; Cloned NdeI/BamHI into pET-28a; One Cu and one Zn per subunit (about 1.84 Cu and 1.6 Zn per dimer); also called Pisum sativum SOD II; pea chloroplastic SOD; source: E. coli BL21 (DE3), pET-28a, purified (Ni-NTA, desalting, buffer exchange, dialysis)

How the values were obtained:
[1] = target: T1, PschSOD (recombinant chloroplastic CuZn-SOD) (Lathyrus oleraceus, UniProt P11964); experiment: pyrogallol autoxidation SOD assay, residual activity; type: biochemical; conditions: superoxide from pyrogallol autoxidation; no constant
T1 construct: gene SODCP; mature form without chloroplast transit peptide (forward primer encodes MAAKKAVA), pET-28a His-tag kept, E. coli BL21 (DE3), Cu/Zn supplemented, ~18 kDa subunit, homodimer 36-38 kDa
T1 sequence (P11964 49-202): B1 chain

[2] = target: the molecule itself; experiment: SEC; analytical gel filtration on a Bio-Sil 250 column, 5 mM K-PO4 pH 7.2 with 150 mM NaCl, calibrated with standard proteins; native mass compared with subunit mass on 15% SDS-PAGE

| Molecule | pyrogallol autoxidation SOD assay, residual activity [1] | stoichiometry N [2] |
| --- | --- | --- |
| [O]O [O2^∙−, superoxide anion] | Superoxide dismutase specific activity of PschSOD, assayed by pyrogallol method |  |
| B1 |  | 2 |
